The target in the assay is T1, NOX2 in differentiated HL60 cells (Homo sapiens, UniProt P04839).
T1 construct: Differentiation of HL-60 cells to granulocytes increases NOX2 expression; endogenous in cells; host or cells: HL60 cells differentiated to neutrophil-like cells with 1.3% DMSO and stimulated with PMA
T1 sequence (P04839 1-570): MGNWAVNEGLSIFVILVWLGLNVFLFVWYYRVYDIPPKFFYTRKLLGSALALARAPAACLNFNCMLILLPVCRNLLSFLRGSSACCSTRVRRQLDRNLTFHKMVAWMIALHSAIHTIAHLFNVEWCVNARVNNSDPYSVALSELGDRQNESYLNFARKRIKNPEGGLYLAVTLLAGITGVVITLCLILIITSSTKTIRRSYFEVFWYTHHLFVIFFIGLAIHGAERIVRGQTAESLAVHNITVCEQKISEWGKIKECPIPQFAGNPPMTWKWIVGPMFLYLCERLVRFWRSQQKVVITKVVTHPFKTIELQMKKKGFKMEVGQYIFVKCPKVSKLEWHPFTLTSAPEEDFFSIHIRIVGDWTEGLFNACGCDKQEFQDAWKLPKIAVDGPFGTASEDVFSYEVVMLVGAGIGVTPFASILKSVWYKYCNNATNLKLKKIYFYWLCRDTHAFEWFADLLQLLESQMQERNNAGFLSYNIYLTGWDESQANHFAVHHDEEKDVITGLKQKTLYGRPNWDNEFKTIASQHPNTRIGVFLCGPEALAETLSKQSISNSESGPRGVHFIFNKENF
T1 sequence (P13498 1-195 partner): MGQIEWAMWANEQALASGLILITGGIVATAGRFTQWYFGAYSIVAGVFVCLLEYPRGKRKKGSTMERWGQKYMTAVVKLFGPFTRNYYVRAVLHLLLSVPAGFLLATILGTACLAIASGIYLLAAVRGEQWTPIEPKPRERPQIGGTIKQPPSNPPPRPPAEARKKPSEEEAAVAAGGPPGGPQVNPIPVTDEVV
In words: HL60 cell-based assays (Assay 1 Oxyburst green BSA fluorescence, Assay 2 L-012 luminescence); result stated for at least one of them. The conditions noted are these: PMA-stimulated superoxide production in differentiated HL60 cells; at least one of Oxyburst and L012 assays; read-out: pIC50 in at least one of the HL60 assays (converted). On the procedure:
In the cell-based assay, superoxide production by NOX2 was measured in differentiated HL60 cells, a human myelomonocytic leukemia cell line, using either Oxyburst (Assay1) or L012 (Assay2). Differentiation of HL-60 cells to granulocytes increases NOX2 expression. The phorbol 12-myristate 13-acetate (PMA) was used to stimulate the production of superoxide in HL60 cells by activating protein kinase C, which then activated the NADPH oxidase (NOX) enzymes. Inhibition of NOX2 enzyme was detected by the reversal of fluorescence signal (Assay1) or luminescence signal (Assay2). The control inhibitor used was diphenyleneiodonium chloride (DPI), a […] inhibitor capable of non-selectively inhibiting superoxide produced by NOX enzymes.
Assay 1: in this high-throughput screening assay, oxyburst green bovine serum albumin (BSA) was used to detect superoxide production in HL60 cells. Oxidation of Oxyburst green BSA by hydrogen peroxide as a result of the activation of NOX2 by PMA. Oxyburst green BSA fluorescence was measured at excitation 485 nm and emission 530 nm.
Assay 2: in this assay, a chemiluminescence probe, L-012 was used to detect superoxide production in HL60 cells. L-012 reacted with various types of reactive oxygen species generated by PMA-activated HL60 cells. Luminescence was measured using Tecan Infinite 500.
The HL60 cells were differentiated into neutrophil-like cells by adding 1.3% DMSO in the media for 3-7 days (Hua, J et al. (2000) Journal of Leukocyte Biology. 68:216-224). Iscove's Modified Dulbecco's Media (IMDM) with L-Glutamine and 25 mM HEPES buffer, Fetal Bovine Serum (FBS), Penicillin/Streptomycin, Oxyburst Green BSA, PBS, and HBSS buffer with Calcium Chloride and Magnesium Chloride were purchased from Invitrogen (Catalog #s: 12440-061, 10500-064, 15140-163, O-13291, 14190-250, and 14025-134 respectively). Phorbol 12-myristate 13-acetate (PMA), glucose, and CHAPS were purchased from Sigma (Catalog #s: 79346, D-9434, and C5070 respectively). Diphenyleneiodonium chloride (DPI) was purchased from Toronto Research Chemicals (Catalog #: D491500). L-012 was purchased from Wako Chemical (Catalog #: 120-04891). Dimethyl sulfoxide (DMSO) was purchased EMD Chemicals (VWR Catalog #: MX1456-1). Multidrop combi was purchased from Thermo Electron Corporation (Waltham, Mass., USA). Hummingbird nanoliter liquid dispenser was purchased from Genomics Solution (Ann Arbor, Mich., USA). 384 well low-volume plates and polypropylene 384 well clear plates were purchased from Greiner (Catalog #: 784076 and 781280 respectively). 96 well plate and 384 well plate black assay plates were purchased from Greiner (Catalog #: 655094 and 781098). 96 well plate for compound serial dilution was purchased from Corning (Catalog #: 9017). Acquest or Analyst fluorescence plate reader was purchased from LJL Biosystems/Molecular Devices (California, USA). Tecan Infinite 500 was purchased from Tecan (Switzerland).
Media for HL60 cells were kept at 4° C. for storage and were warmed to 37° C. in a water bath before use. The media components were IMDM media with 20% FBS and 1% Penicillin/Streptomycin.
Buffer to be used for compound addition and compound dilution consisted of HBSS buffer with 0.1% glucose.
Buffer to be used for cells consisted of HBSS buffer with 0.1% glucose and 0.01% CHAPS.
HL60 cells were thawed and resuspended in Cells media. The cells were centrifuged at 1200 rpm for 8 minutes. Media was aspirated and the cells were resuspended in Cells buffer. The cells were counted and resuspended to 1×10^6 cells/mL.
Full inhibition controls were dispensed using 100 nL/well of 1 mM DPI in DMSO to column 18 of a 384 well plate. Compounds were dispensed using 100 nL/well. Full activity controls were dispensed using 100 nL/well of 4 uM PMA in DMSO. Oxyburst Green BSA was added to cell solution at 10 ug/mL. Using the Multidrop, 10 uL cell solution was added to the entire assay plate. The assay plate was incubated at room temperature for 100 minutes. […]

Structures can show the parent of a compound that is named as a salt.

For the molecule `COc1ccc(-c2c(C)sc3nc(C)cc(NS(=O)(=O)c4cccc(Cl)c4)c23)cc1` [Example 18, 3-Chloro-N-{2,6-dimethyl-3-[4-(methyloxy)phenyl]thieno[2,3-b]pyridin-4-yl}-benzenesulfonamide], the IC50 is below 100 µM.

With `COc1cccc(-c2c(-c3ccoc3)sc3nc(C)cc(NS(=O)(=O)c4cccc(Cl)c4)c23)c1` [Example 57, 3-Chloro-N-{2-(3-furanyl)-6-methyl-3-[3-(methyloxy)phenyl]thieno[2,3-b]pyridin-4-yl}-benzenesulfonamide], the IC50 was below 100 µM.

Consider `COc1cccc(-c2csc3nccc(NS(=O)(=O)c4cccc(Cl)c4)c23)c1` [Example 62, 3-Chloro-N-{3-[3-(methyloxy)phenyl]thieno[2,3-b]pyridin-4-yl}benzenesulfonamide], for which the IC50 was below 100 µM.

Consider `COc1cccc(-c2c(C)sc3nc(C)cc(NS(=O)(=O)C4CCCCC4)c23)c1` [Example 8, N-{2,6-Dimethyl-3-[3-(methyloxy)phenyl]thieno[2,3-b]pyridin-4-yl}-cyclohexanesulfonamide], for which the IC50 was below 100 µM.

Turning to `COc1cccc(-c2c(C(C)C)sc3nc(C)cc(NS(=O)(=O)c4cccc(Cl)c4)c23)c1` [Example 45, 3-Chloro-N-{6-methyl-2-(1-methylethyl)-3-[3-(methyloxy)phenyl]thieno[2,3-b]pyridin-4-yl}-benzenesulfonamide trifluoroacetate], the IC50 is below 100 µM.

Take `COc1cccc(-c2c(C)sc3nc(Cl)cc(NS(=O)(=O)c4cccc(Cl)c4)c23)c1` [Example 117, 3-Chloro-N-{6-chloro-2-methyl-3-[3-(methyloxy)phenyl]thieno[2,3-b]pyridin-4-yl}benzenesulfonamide]: the IC50 was below 100 µM.

In the case of `Cc1cc(NS(=O)(=O)c2cccc(Cl)c2)c2c(Br)c(-c3cn[nH]c3)sc2n1` [Example 100, N-[3-Bromo-6-methyl-2-(1H-pyrazol-4-yl)thieno[2,3-b]pyridin-4-yl]-3-chlorobenzenesulfonamide], the IC50 was below 100 µM.

Consider `COc1cccc(-c2c(C)sc3nc(C)cc(NS(=O)(=O)c4cncc(Br)c4)c23)c1` [Example 52, 5-Bromo-N-{2,6-dimethyl-3-[3-(methyloxy)phenyl]thieno[2,3-b]pyridin-4-yl}-3-pyridinesulfonamide trifluoroacetate], for which the IC50 was below 100 µM.

Turning to `Cc1cc(NS(=O)(=O)c2cccc(Cl)c2)c2c(C)c(-c3cn[nH]c3)sc2n1` [Example 76, 3-Chloro-N-[3,6-dimethyl-2-(1H-pyrazol-4-yl)thieno[2,3-b]pyridin-4-yl]benzenesulfonamide], the IC50 is below 100 µM.

As for `Cc1cc(NS(=O)(=O)c2cccc(Cl)c2)c2c(-c3cn[nH]c3)c(C)sc2n1` [Example 63, 3-Chloro-N-[2,6-dimethyl-3-(1H-pyrazol-4-yl)thieno[2,3-b]pyridin-4-yl]benzenesulfonamide], the IC50 was below 100 µM.

Regarding `COc1cccc(-c2c(C)sc3nc(C)cc(NS(=O)(=O)C4(Cl)CCN(C(=O)OCc5ccccc5)CC4)c23)c1` [Example 10, Phenylmethyl 4-chloro-4-[({2,6-dimethyl-3-[3-(methyloxy)phenyl]thieno[2,3-b]pyridin-4-yl}amino)sulfonyl]-1-piperidinecarboxylate], the IC50 was below 100 µM.

`COc1cncc(-c2c(C)sc3nc(C)cc(NS(=O)(=O)c4cccc(Cl)c4)c23)c1` [Example 67, 3-Chloro-N-{2,6-dimethyl-3-[5-(methyloxy)-3-pyridinyl]thieno[2,3-b]pyridin-4-yl}benzenesulfonamide]: the IC50 was below 100 µM.

As to `COc1cccc(-c2c(-c3cccnc3)sc3nc(C)cc(NS(=O)(=O)c4cccc(Cl)c4)c23)c1` [Example 41, 3-Chloro-N-[6-methyl-3-[3-(methyloxy)phenyl]-2-(3-pyridinyl)thieno[2,3-b]pyridin-4-yl]-benzenesulfonamide], the IC50 is below 100 µM.

With `COc1ccc(-c2csc3nc(C)cc(NS(=O)(=O)c4cccc(Cl)c4)c23)cc1OC` [Example 47, N-{3-[3,4-Bis(methyloxy)phenyl]-6-methylthieno[2,3-b]pyridin-4-yl}-3-chlorobenzenesulfonamide trifluoroacetate], the IC50 was below 100 µM.

For `Cc1cc(NS(=O)(=O)c2cccc(Cl)c2)c2c(-c3cccc(CNC(=O)OC(C)(C)C)c3)c(C)sc2n1` [Example 70, 1,1-Dimethylethyl {[3-(4-{[(3-chlorophenyl)sulfonyl]amino}-2,6-dimethylthieno[2,3-b]pyridin-3-yl)phenyl]methyl}carbamate], the IC50 is below 100 µM.

In the case of `COc1cccc(-c2c(-c3cn[nH]c3)sc3nc(C)cc(NS(=O)(=O)c4cccc(Cl)c4)c23)c1` [Example 58, 3-Chloro-N-[6-methyl-3-[3-(methyloxy)phenyl]-2-(1H-pyrazol-4-yl)thieno[2,3-b]pyridin-4-yl]benzenesulfonamide], the IC50 is below 100 µM.

Take `CCc1sc2nc(C)cc(NS(=O)(=O)c3cccc(Cl)c3)c2c1-c1cccc(N(C)C)c1` [Example 48, 3-Chloro-N-{3-[3-(dimethylamino)phenyl]-2-ethyl-6-methylthieno[2,3-b]pyridin-4-yl}benzenesulfonamide trifluoroacetate]: the IC50 is below 100 µM.

For `COc1cccc(-c2c(-c3ccco3)sc3nc(C)cc(NS(=O)(=O)c4cccc(Cl)c4)c23)c1` [Example 42, 3-Chloro-N-{2-(2-furanyl)-6-methyl-3-[3-(methyloxy)phenyl]thieno[2,3-b]pyridin-4-yl}-benzenesulfonamide], the IC50 is below 100 µM.

With `Cc1cc(NS(=O)(=O)c2cccc(Cl)c2)c2c(-c3ccc(Cl)c(Cl)c3)c(C)sc2n1` [Example 20, 3-Chloro-N-[3-(3,4-dichlorophenyl)-2,6-dimethylthieno[2,3-b]pyridin-4-yl]benzenesulfonamide], the IC50 was below 100 µM.

In the case of `COc1cccc(-c2c(-c3cccs3)sc3nc(C)cc(NS(=O)(=O)c4cccc(Cl)c4)c23)c1` [Example 44, 3-Chloro-N-[6-methyl-3-[3-(methyloxy)phenyl]-2-(2-thienyl)thieno[2,3-b]pyridin-4-yl]-benzenesulfonamide], the IC50 was below 100 µM.
